Patent US8048892B2, “Azaquinolone based compounds exhibiting prolyl hydroxylase inhibitory activity, compositions, and uses thereof” (Amgen Inc., priority 2006, dated 2011)
Structures can show the parent of a compound that is named as a salt.

Target: HIF PHD2 (Homo sapiens, UniProt Q9GZT9)
Assay: PHD2 inhibition assay (TR-FRET, VCB-Eu detection of hydroxylated P564-HIF1α peptide)
Format: biochemical
Details: 2 nM PHD2, 100 nM P564-HIF1α peptide, 0.25 μM 2-oxoglutarate
Protocol: Inhibition of HIF PHD2 activity was quantified utilizing the TR-FRET technology. HIF PHD2 catalyzes a hydroxyl modification on the proline residue of the P564-HIF1α peptide substrate (Biotin-DLEMLAPYIPMDDDFQL (SEQ ID NO: 7)) resulting in recognition and binding of the europylated Von Hippel-Lindau protein (pVHL), elongin B and elongin C heterotrimeric (VCB-Eu) complex.
The PHD2 inhibition assay was executed by addition of freshly dissolved FeCl2 to 178.57 μM (100 μM final concentration) in PHD2 Reaction Buffer containing 30 mM MES, pH 6, 10 mM NaCl, 0.25% Brij-35, 0.01% BSA, and 1% DMSO. 28 μL of the iron solution and 2 μL of inhibitor compounds serially diluted in 100% DMSO (5% DMSO final) were added to black polypropylene 96-well microtiter plates. To that, 10 μL of 10 nM PHD2 (2 nM final) was added to all wells of the plate except for the 8 wells of column 12 (LO control), and allowed to incubate at room temperature on the shaker for one hour. Column 6 was the HI control containing PHD2 enzyme and 5% DMSO vehicle, but no inhibitor compound. To initiate the PHD2 enzymatic reaction, 10 μL of a solution containing 500 nM P564-HIF1α peptide (100 nM final), 10 mM ascorbic acid (2 mM final), and 1.25 μM 2-oxoglutarate (α-ketoglutarate; 0.25 μM final) in PHD2 Reaction Buffer was added to all wells of the plate and allowed to incubate on the shaker at room temperature for one hour.
The reaction was terminated by addition of 25 μL TR-FRET Buffer (50 mM TRIS-HCl, pH 9, 100 mM NaCl, 0.05% BSA, and 0.5% Tween-20) containing 150 mM succinate (product inhibitor; 50 mM final), 75 nM streptavidin-APC (25 nM final), and 7.5 nM VCB-Eu (2.5 nM final). The TR-FRET detection reagents were placed on a shaker for 1 hour to reach binding equilibrium before reading on the Discovery platform (PerkinElmer). Europium is excited at 315 nm and phosphoresces at 615 nm with a large Stoke's shift. APC, in turn, emits at 655 nm upon excitation at 615 nm. The TR-FRET signal is measured as the ratio of the APC 655 nm signal divided by the internal europium reference 615 nm emission signal.
The POC (percentage of control) was determined by comparing the signal from hydroxylated peptide substrate in the enzyme reaction containing inhibitor compound with that from PHD2 enzyme with DMSO vehicle alone (HI control), and no enzyme (LO control). POC was calculated using the formula: % control (POC)=(cpd−average LO)/(average HI−average LO)*100. Data (consisting of POC and inhibitor concentration in μM) was fitted to a 4-parameter equation (y=A+((B−A)/(1+((x/C)^D))), where A is the minimum y (POC) value, B is the maximum y (POC), C is the x (cpd concentration) at the point of inflection and D is the slope factor) using a Levenburg-Marquardt non-linear regression algorithm.

HIF PHD2, sequence (Q9GZT9 whole entry): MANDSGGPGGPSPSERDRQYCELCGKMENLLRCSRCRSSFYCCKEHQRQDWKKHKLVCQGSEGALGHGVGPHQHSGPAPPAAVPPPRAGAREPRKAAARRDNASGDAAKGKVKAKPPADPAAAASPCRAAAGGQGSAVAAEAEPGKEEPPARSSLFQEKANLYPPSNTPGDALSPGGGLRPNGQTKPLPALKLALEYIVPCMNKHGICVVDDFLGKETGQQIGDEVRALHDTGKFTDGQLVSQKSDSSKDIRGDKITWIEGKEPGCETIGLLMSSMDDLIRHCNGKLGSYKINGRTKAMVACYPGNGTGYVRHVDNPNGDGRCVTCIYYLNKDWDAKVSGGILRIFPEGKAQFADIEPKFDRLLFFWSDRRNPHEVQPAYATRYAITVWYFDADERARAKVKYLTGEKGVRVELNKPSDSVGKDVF

Structure (SMILES)	IC50 [nM]
Cn1c(=O)c(C(=O)NCC(=O)O)c(O)c2c(Br)nccc21 [Example 130, 2-(5-Bromo-4-hydroxy-1-methyl-2-oxo-1,2-dihydro-1,6-naphthyridine-3-carboxamido)acetic acid, Trifluoroacetic acid salt]	< 50
Cn1c(=O)c(C(=O)NCC(=O)O)c(O)c2cc(C#CC(C)(C)C)cnc21 [Example 78, N-((6-(3,3-Dimethyl-1-butyn-1-yl)-4-hydroxy-1-methyl-2-oxo-1,2-dihydro-1,8-naphthyridin-3-yl)carbonyl)glycine]	< 50
Cn1c(=O)c(C(=O)NCC(=O)O)c(O)c2cc(C3CCOC3)c(C(F)(F)F)nc21 (racemic) [Example 100, (R,S) 2-(4-Hydroxy-1-methyl-2-oxo-6-(tetrahydrofuran-3-yl)-7-(trifluoromethyl)-1,2-dihydro-1,8-naphthyridine-3-carboxamido)acetic acid]	< 50
Cn1c(=O)c(C(=O)NCC(=O)O)c(O)c2ccc(C(F)(F)F)nc21 [Example 86, 2-(4-Hydroxy-1-methyl-2-oxo-7-(trifluoromethyl)-1,2-dihydro-1,8-naphthyridine-3-carboxamido)acetic acid]	< 50
Cn1c(=O)c(C(=O)NCC(=O)O)c(O)c2ccc(-c3cccs3)nc21 [Example 14, N-((4-Hydroxy-1-methyl-2-oxo-7-(2-thienyl)-1,2-dihydro-1,8-naphthyridin-3-yl)carbonyl)glycine]	< 50
Cn1c(=O)c(C(=O)NCC(=O)O)c(O)c2cc(C3CCCO3)c(C(F)(F)F)nc21 (single isomer, unassigned) [Example 101, (R)-2-(4-Hydroxy-1-methyl-2-oxo-6-(tetrahydrofuran-2-yl)-7-(trifluoromethyl)-1,2-dihydro-1,8-naphthyridine-3-carboxamido)acetic acid or (S)-2-(4-Hydroxy-1-methyl-2-oxo-6-(tetrahydrofuran-2-yl)-7-(trifluoromethyl)-1,2-dihydro-1,8-naphthyridine-3-carboxamido)acetic acid]	< 50
Cn1c(=O)c(C(=O)NCC(=O)O)c(O)c2cc(C3CCCC3)c(C(F)(F)F)nc21 [Example 98, 2-(6-Cyclopentyl-4-hydroxy-1-methyl-2-oxo-7-(trifluoromethyl)-1,2-dihydro-1,8-naphthyridine-3-carboxamido)acetic acid]	100 to 500
Cn1c(=O)c(C(=O)NCC(=O)O)c(O)c2cc(N3CCOCC3)ncc21 [Example 120, 2-(4-Hydroxy-1-methyl-6-morpholino-2-oxo-1,2-dihydro-1,7-naphthyridine-3-carboxamido)acetic acid, Trifluoroacetic acid salt]	< 50
Cn1c(=O)c(C(=O)NCC(=O)O)c(O)c2cc(CCC3CC3)cnc21 [Example 81, 2-(6-(2-Cyclopropylethyl)-4-hydroxy-1-methyl-2-oxo-1,2-dihydro-1,8-naphthyridine-3-carboxamido)acetic acid]	< 50
C#Cc1cnc2c(O)c(C(=O)NCC(=O)O)c(=O)n(C)c2c1 [Example 7, 2-(7-Ethynyl-4-hydroxy-1-methyl-2-oxo-1,2-dihydro-1,5-naphthyridine-3-carboxamido)acetic acid]	< 50
Cn1c(=O)c(C(=O)NCC(=O)O)c(O)c2ccc(N3CCC(C(F)(F)F)CC3)nc21 [Example 24, 2-(4-Hydroxy-1-methyl-2-oxo-7-(4-(trifluoromethyl)piperidin-1-yl)-1,2-dihydro-1,8-naphthyridine-3-carboxamido)acetic acid]	500 to 1000
Cn1c(=O)c(C(=O)NCC(=O)O)c(O)c2cc(C3CCCO3)cnc21 (centres unmarked) [Example 71, 2-(4-Hydroxy-1-methyl-2-oxo-6-(tetrahydrofuran-2-yl)-1,2-dihydro-1,8-naphthyridine-3-carboxamido)acetic acid]	50 to 100
O=C(O)CNC(=O)c1c(O)c2ccc(C(F)(F)F)nc2[nH]c1=O [Example 87, 2-(4-Hydroxy-2-oxo-7-(trifluoromethyl)-1,2-dihydro-1,8-naphthyridine-3-carboxamido)acetic acid]	< 50
Cn1c(=O)c(C(=O)NCC(=O)O)c(O)c2cc(C3CCOC3)c(C(F)(F)F)nc21 (single isomer, unassigned) [Example 103, (R)-2-(4-Hydroxy-1-methyl-2-oxo-6-(tetrahydrofuran-3-yl)-7-(trifluoromethyl)-1,2-dihydro-1,8-naphthyridine-3-carboxamido)acetic acid or (S)-2-(4-Hydroxy-1-methyl-2-oxo-6-(tetrahydrofuran-3-yl)-7-(trifluoromethyl)-1,2-dihydro-1,8-naphthyridine-3-carboxamido)acetic acid]	< 50
Cn1c(=O)c(C(=O)NCC(=O)O)c(O)c2ncc(C3=CCCC3)cc21 [Example 4, 2-(7-Cyclopentenyl-4-hydroxy-1-methyl-2-oxo-1,2-dihydro-1,5-naphthyridine-3-carboxamido)acetic acid]	< 50

Other lines, results leading:

IC50 [nM]	Structure (SMILES)
100 to 500	Cn1c(=O)c(C(=O)NCC(=O)O)c(O)c2cc(-c3ccccc3)nc(C(F)(F)F)c21 [Example 124, 2-(4-Hydroxy-1-methyl-2-oxo-6-phenyl-8-(trifluoromethyl)-1,2-dihydro-1,7-naphthyridine-3-carboxamido)acetic acid]
< 50	Cn1c(=O)c(C(=O)NCC(=O)O)c(O)c2cc(-c3ccc(F)nc3)cnc21 [Example 51, N-((6-(6-Fluoro-3-pyridinyl)-4-hydroxy-1-methyl-2-oxo-1,2-dihydro-1,8-naphthyridin-3-yl)carbonyl)glycine]
50 to 100	Cc1ccccc1-c1cnc2c(c1)c(O)c(C(=O)NCC(=O)O)c(=O)n2C [Example 35, N-((4-Hydroxy-1-methyl-6-(2-methylphenyl)-2-oxo-1,2-dihydro-1,8-naphthyridin-3-yl)carbonyl)glycine]
50 to 100	Cn1c(=O)c(C(=O)NCC(=O)O)c(O)c2cc(-c3cccc(C(F)(F)F)n3)cnc21 [Example 32, N-((4-Hydroxy-1-methyl-2-oxo-6-(6-(trifluoromethyl)-2-pyridinyl)-1,2-dihydro-1,8-naphthyridin-3-yl)carbonyl)glycine]
100 to 500	Cn1c(=O)c(C(=O)NCC(=O)O)c(O)c2cc(-c3cccc(N4CCCC4)c3)cnc21 [Example 60, N-((4-Hydroxy-1-methyl-2-oxo-6-(3-(1-pyrrolidinyl)phenyl)-1,2-dihydro-1,8-naphthyridin-3-yl)carbonyl)glycine]
< 50	Cn1c(=O)c(C(=O)NCC(=O)O)c(O)c2cc(-c3ccccc3)ncc21 [Example 105, N-((4-Hydroxy-1-methyl-2-oxo-6-phenyl-1,2-dihydro-1,7-naphthyridin-3-yl)carbonyl)glycine]
50 to 100	C[C@H](NC(=O)c1c(O)c2ccc(C(F)(F)F)nc2n(C)c1=O)C(=O)O [Example 89, (S)-2-(4-Hydroxy-1-methyl-2-oxo-7-(trifluoromethyl)-1,2-dihydro-1,8-naphthyridine-3-carboxamido)propanoic acid]
< 50	CN(C)c1ccc(-c2cnc3c(c2)c(O)c(C(=O)NCC(=O)O)c(=O)n3C)cn1 [Example 62, N-((6-(6-(Dimethylamino)-3-pyridinyl)-4-hydroxy-1-methyl-2-oxo-1,2-dihydro-1,8-naphthyridin-3-yl)carbonyl)glycine]
100 to 500	C[C@H](NC(=O)c1c(O)c2cc(-c3ccccc3)cnc2n(C)c1=O)C(=O)O [Example 74, (S)-2-(4-Hydroxy-1-methyl-2-oxo-6-phenyl-1,2-dihydro-1,8-naphthyridine-3-carboxamido)propanoic acid]
< 50	COc1ccnc(-c2cnc3c(c2)c(O)c(C(=O)NCC(=O)O)c(=O)n3C)n1 [Example 29, 2-(4-Hydroxy-6-(4-methoxypyrimidin-2-yl)-1-methyl-2-oxo-1,2-dihydro-1,8-naphthyridine-3-carboxamido)acetic acid]
50 to 100	Cn1c(=O)c(C(=O)NCC(=O)O)c(O)c2cc(-c3ccc4c(c3)CCO4)cnc21 [Example 39, N-((6-(2,3-Dihydro-1-benzofuran-5-yl)-4-hydroxy-1-methyl-2-oxo-1,2-dihydro-1,8-naphthyridin-3-yl)carbonyl)glycine]
